From ChEMBL document CHEMBL5236606, “Synthesis, Structure-Activity Relationships, and In Vivo Evaluation of Novel C-17 Amine Derivatives Based on GSK3640254 as HIV-1 Maturation Inhibitors with Broad Spectrum Activity” (J Med Chem, 2022)

How the values were obtained:
[1] = Fold resistance, ratio of EC50 for antiviral activity against wild type HIV-1 NLRepRlucP373S infected in human MT2 cells assessed as inhibition of viral growth in presence of 10% FBS and 40% human serum supplemented with 27mg/mL of human serum albumin to EC50 for antiviral activity against wild type HIV-1 NLRepRlucP373S infected in human MT2 cells assessed as inhibition of viral growth; type: functional, Human immunodeficiency virus 1
[2] = tested on: Human immunodeficiency virus 1; assay: Antiviral activity against wild type HIV-1 NLRepRlucP373S infected in human MT2 cells assessed as inhibition of viral growth measured after 4 to 5 days in presence of 10% FBS and 40% human serum supplemented with 27 mg/mL of human serum albumin by Dual luciferase reporter assay; type: functional, organism-based; details: Human immunodeficiency virus 1, NLRepRlucP373S
[3] = tested on: Human immunodeficiency virus 1; assay: Antiviral activity against wild type HIV-1 NLRepRlucP373S infected in human MT2 cells assessed as inhibition of viral growth measured after 4 to 5 days by Dual luciferase reporter assay; type: functional, organism-based; details: Human immunodeficiency virus 1, NLRepRlucP373S
[4] = Cytotoxicity against human MT2 cells assessed as reduction in cell viability; type: toxicity, cell-based
[5] = tested on: Human immunodeficiency virus 1; assay: Antiviral activity against wild type HIV-1 NLRepRlucP373S harboring T332S/V362I/prR41G mutant infected in human MT2 cells assessed as inhibition of viral growth measured after 4 to 5 days by Dual luciferase reporter assay; type: functional, organism-based; details: Human immunodeficiency virus 1, NLRepRlucP373S
[6] = MRT in Sprague-Dawley rat at 1 mg/kg, iv by LC-MS/MS analysis; type: ADME, organism-based; details: in vivo
[7] = Volume of distribution at steady state in Sprague-Dawley rat at 1 mg/kg, iv by LC-MS/MS analysis; type: ADME, organism-based; details: in vivo, read-out: Vdss
[8] = Metabolic stability in human liver microsomes assessed as half life at 0.5 uM in presence of NADPH by LC-MS/MS analysis; type: ADME, Microsome
[9] = tested on: Human immunodeficiency virus 1; assay: Antiviral activity against wild type HIV-1 NLRepRlucP373S harboring A326T/V362I/V370A mutant infected in human MT2 cells assessed as inhibition of viral growth measured after 4 to 5 days by Dual luciferase reporter assay; type: functional, organism-based; details: Human immunodeficiency virus 1, NLRepRlucP373S
[10] = Metabolic stability in dog liver microsomes assessed as half life at 0.5 uM in presence of NADPH by LC-MS/MS analysis; type: ADME, Canis lupus familiaris, Microsome
[11] = Clearance in Sprague-Dawley rat at 1 mg/kg, iv by LC-MS/MS analysis; type: ADME, organism-based; details: in vivo
Albumin = Albumin (Homo sapiens, UniProt P02768); assay: Protein binding in human serum albumin assessed as fraction bound at 53 nM incubated for 1 hrs by ultracentrifugation method; type: ADME, cell-free; details: read-out: PPB (converted)
[12] = tested on: Human immunodeficiency virus 1; assay: Antiviral activity against wild type HIV-1 NLRepRlucP373S harboring R361K/V362I/L363M mutant infected in human MT2 cells assessed as inhibition of viral growth measured after 4 to 5 days by Dual luciferase reporter assay; type: functional, organism-based; details: Human immunodeficiency virus 1, NLRepRlucP373S
[13] = Metabolic stability in rat liver microsomes assessed as half life at 0.5 uM in presence of NADPH by LC-MS/MS analysis; type: ADME, Microsome
[14] = tested on: Human immunodeficiency virus 1; assay: Antiviral activity against wild type HIV-1 NLRepRlucP373S harboring deltaV370 mutant infected in human MT2 cells assessed as inhibition of viral growth measured after 4 to 5 days by Dual luciferase reporter assay; type: functional, organism-based; details: Human immunodeficiency virus 1, NLRepRlucP373S
[15] = tested on: Human immunodeficiency virus 1; assay: Antiviral activity against wild type HIV-1 NLRepRlucP373S harboring V362I/V370A mutant infected in human MT2 cells assessed as inhibition of viral growth measured after 4 to 5 days by Dual luciferase reporter assay; type: functional, organism-based; details: Human immunodeficiency virus 1, NLRepRlucP373S
[16] = Solubility of the compound in FeSSIF at pH 5.0; type: ADME
[17] = Solubility of compound in FaSSIF at pH 6.5; type: ADME

Chain of Albumin (P02768 whole entry): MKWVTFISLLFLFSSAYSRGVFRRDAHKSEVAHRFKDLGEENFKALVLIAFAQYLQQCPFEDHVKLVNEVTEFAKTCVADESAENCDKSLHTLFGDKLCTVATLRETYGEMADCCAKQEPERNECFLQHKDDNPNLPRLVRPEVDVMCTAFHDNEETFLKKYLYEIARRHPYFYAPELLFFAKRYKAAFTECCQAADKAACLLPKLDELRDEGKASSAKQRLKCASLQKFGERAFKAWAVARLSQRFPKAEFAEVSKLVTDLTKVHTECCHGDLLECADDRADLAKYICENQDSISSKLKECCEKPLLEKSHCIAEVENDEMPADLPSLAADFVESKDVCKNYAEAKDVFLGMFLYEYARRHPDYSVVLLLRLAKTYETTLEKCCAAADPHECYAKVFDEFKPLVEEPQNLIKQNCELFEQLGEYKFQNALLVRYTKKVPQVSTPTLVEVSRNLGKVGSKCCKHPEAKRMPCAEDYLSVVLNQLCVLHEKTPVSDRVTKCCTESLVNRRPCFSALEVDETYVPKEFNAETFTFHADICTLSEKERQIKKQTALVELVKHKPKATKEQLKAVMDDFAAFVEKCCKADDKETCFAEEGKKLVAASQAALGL

| Compound | fold change (FC) [1] | EC50 [2] [nM] | EC50 [3] [nM] | CC50 [4] [nM] | EC50 [5] [nM] | also measured |
| --- | --- | --- | --- | --- | --- | --- |
| C=C(C)[C@@H]1CC[C@]2(NCCN3CCS(=O)(=O)CC3)CC[C@]3(C)[C@H](CC[C@@H]4[C@@]5(C)CC=C(C6=CCC(CF)(C(=O)O)CC6)C(C)(C)[C@@H]5CC[C@]43C)[C@@H]12 (single isomer, unassigned) | 3.3 | – | – | – | – | – |
| C=C(C)[C@@H]1CC[C@]2(NCC[C@]3(O)CC[C@@](C)(O)CC3)CC[C@]3(C)[C@H](CC[C@@H]4[C@@]5(C)CC=C(C6=CC[C@](CF)(C(=O)O)CC6)C(C)(C)[C@@H]5CC[C@]43C)[C@@H]12 | 9.8 | 16 | 1.7 | 18000 | 6.1 | – |
| C=C(C)[C@@H]1CC[C@]2(NCCC3(O)CCOCC3)CC[C@]3(C)[C@H](CC[C@@H]4[C@@]5(C)CC=C(C6=CC[C@](CF)(C(=O)O)CC6)C(C)(C)[C@@H]5CC[C@]43C)[C@@H]12 | 15 | 30 | 2 | 9500 | 8.2 | – |
| C=C(C)[C@@H]1CC[C@]2(NCCC3(O)CCN(S(C)(=O)=O)CC3)CC[C@]3(C)[C@H](CC[C@@H]4[C@@]5(C)CC=C(C6=CC[C@](CF)(C(=O)O)CC6)C(C)(C)[C@@H]5CC[C@]43C)[C@@H]12 | 73 | 19 | 2.6 | 23000 | 8.3 | – |
| C=C(C)[C@@H]1CC[C@]2(NCCC3CCOCC3)CC[C@]3(C)[C@H](CC[C@@H]4[C@@]5(C)CC=C(C6=CC[C@](CF)(C(=O)O)CC6)C(C)(C)[C@@H]5CC[C@]43C)[C@@H]12 | 33 | 980 | 30 | 13000 | 160 | – |
| C=C(C)[C@@H]1CC[C@]2(NCCN3CCS(=O)(=O)CC3)CC[C@]3(C)[C@H](CC[C@@H]4[C@@]5(C)CC=C(C6=CC[C@@](CF)(C(=O)O)CC6)C(C)(C)[C@@H]5CC[C@]43C)[C@@H]12 | 4.6 | – | 3 | 15600 | 7 | MRT [6]: 4.9 h; Vd [7]: 1.8 L/kg; half-life at 0.5 µM [8]: 1.83 h; EC50 [9]: 26 nM; half-life at 0.5 µM [10]: 1.47 h; clearance [11]: 6.5 mL/min/kg; fraction unbound at 1 h, 0.053 µM (Albumin): 0.14; EC50 [12]: 3 nM; half-life at 0.5 µM [13]: 1.45 h; EC50 [14]: 3 nM |
| C=C(C)[C@@H]1CC[C@]2(NCCN3CCC(C)(O)CC3)CC[C@]3(C)[C@H](CC[C@@H]4[C@@]5(C)CC=C(C6=CC[C@](CF)(C(=O)O)CC6)C(C)(C)[C@@H]5CC[C@]43C)[C@@H]12 | 16 | 19 | 1.2 | 14000 | 5.6 | – |
| C=C(C)[C@@H]1CC[C@]2(NCCN3CCS(=O)(=O)CC3)CC[C@]3(C)[C@H](CC[C@@H]4[C@@]5(C)CC=C(c6ccc(C(=O)O)cc6)C(C)(C)[C@@H]5CC[C@]43C)[C@@H]12 [BMS-955176] | 2 | – | – | 13000 | 700 | EC50 [15]: 3 nM; EC50 [14]: 6 nM |
| C=C(C)[C@@H]1CC[C@]2(NCC[C@]3(O)CC[C@H](S(C)(=O)=O)CC3)CC[C@]3(C)[C@H](CC[C@@H]4[C@@]5(C)CC=C(C6=CC[C@](CF)(C(=O)O)CC6)C(C)(C)[C@@H]5CC[C@]43C)[C@@H]12 | 4.1 | 5.9 | 1.5 | 16000 | 4.6 | – |
| C=C(C)[C@@H]1CC[C@]2(NCC[C@]3(O)CC[C@](C)(O)CC3)CC[C@]3(C)[C@H](CC[C@@H]4[C@@]5(C)CC=C(C6=CC[C@@](CF)(C(=O)O)CC6)C(C)(C)[C@@H]5CC[C@]43C)[C@@H]12 | 4.6 | 14 | 3 | 11000 | 9.2 | – |
| C=C(C)[C@@H]1CC[C@]2(NCCN3CCS(=O)(=O)CC3)CC[C@]3(C)[C@H](CC[C@@H]4[C@@]5(C)CC=C(C6=CC[C@@](CF)(C(=O)O)CC6)C(C)(C)[C@@H]5CC[C@]43C)[C@@H]12.Cl.Cl | – | – | – | – | – | solubility [16]: 800 µM; solubility [17]: 310 µM |
